Reference: the supplement of paper PMC11208160

Assay: recombinant UMI read abundance after kanamycin selection (control-corrected) (log10(CPM+1)); higher = more efficient recombination; extreme values may be limits of the assay; sequences stand for … in AGTGCAGAGAAAATCGGCCAGTTTTCTCTGCCTGCAGTCCGCATGCCGTGGGACCCCTTGGGTTCTAACCTGTTGCCTAGATTTATGCAGCGGACTGCCTTTCTCCCAAAGTGATAAACCGG…AGGTTGGTTTCACT; site = the 11-nt donor
How it was run: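 Reported values are log10(CPM+1) from a pooled Escherichia coli screen of donor and donor-binding-loop pairs for the IS621 bridge recombinase. Selection used IPTG (0.07 mM) plus kanamycin, against unselected plating, each in two replicates. Recombinant UMIs were amplified across the donor–target junction, sequenced, converted to CPM, averaged over replicates and scaled by control-derived factors.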
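Note: IS621 bridge recombinase in Escherichia coli cells against a fixed T5 target plasmid.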

Sequence | recombinant UMI read abundance (log10)
CCTTCTTCATGGACCGGTTTTCCCGGTAATCCGTATTTGTC (site CCTTCTTCTGA) | 0
CCAGGTGCATGGACCGGTTTTCCCGGTAATCCGTATTTGAG (site CCAGGTGCTCT) | 0.843
AGCTAGTCATGGACCGGTTTTCCCGGTAATCCGTATTTGAG (site AGCTAGTCTCT) | 2.57
ACTAGAACATGGACCGGTTTTCCCGGTAATCCGTATTTGAC (site ACTAGAACTTT) | 0.322
ACATCCACATGGACCGGTTTTCCCGGTAATCCGTATTTGTG (site ACATCTACTCA) | 0.0155
TAGCTTGCATGGACCGGTTTTCCCGGTAATCCGTATTTGAA (site TAGCTGGCTTT) | 0.02
CAAGCCACATGGACCGGTTTTCCCGGTAATCCGTATTTGGG (site CAAGCCACTCC) | 0.408
CTTAATACATGGACCGGTTTTCCCGGTAATCCGTATTTGGC (site CATAATACTGC) | 0.00796
TTAATATCATGGACCGGTTTTCCCGGTAATCCGTATTTGAC (site TTAATATCTGT) | 1.18
CAGAATACATGGACCGGTTTTCCCGGTAATCCGTATTTGTT (site CGGAATCCTAA) | 0
ACAAGAACATGGACCGGTTTTCCCGGTAATCCGTATTTGAG (site ACCAGAACTCT) | 0.645
AATTATGCATGGACCGGTTTTCCCGGTAATCCGTATTTGGT (site AATTATGCTAC) | 2.02
GACAAACCATGGACCGGTTTTCCCGGTAATCCGTATTTGGT (site GACAAACCTTC) | 0
TCGAAGCCATGGACCGGTTTTCCCGGTAATCCGTATTTGGG (site GCGAAGCCTCC) | 0.0961
GATTGAACATGGACCGGTTTTCCCGGTAATCCGTATTTGAC (site GATTGTACTGT) | 0
AGGAATACATGGACCGGTTTTCCCGGTAATCCGTATTTGAC (site AGGACTACTGT) | 0.624
GTGTACCCATGGACCGGTTTTCCCGGTAATCCGTATTTGGC (site GTGTACCCTGC) | 0.705
CGATCATCATGGACCGGTTTTCCCGGTAATCCGTATTTGCT (site GGATCATCTAT) | 0.0067
GCGAGGGCATGGACCGGTTTTCCCGGTAATCCGTATTTGCC (site GCGAGGGCTGG) | 2.23
GCCCGAGCATGGACCGGTTTTCCCGGTAATCCGTATTTGGA (site GCCCGAGCTTC) | 0.73
ATTGACACATGGACCGGTTTTCCCGGTAATCCGTATTTGGT (site ATTGACACTAC) | 0.911
TAGCTTGCATGGACCGGTTTTCCCGGTAATCCGTATTTGAA (site TAGCTTGCTTT) | 1.4
ATTTATACATGGACCGGTTTTCCCGGTAATCCGTATTTGAC (site ATGTATACTGT) | 1.21
CCAGTCACATGGACCGGTTTTCCCGGTAATCCGTATTTGGG (site CGAGTCACTCC) | 0.00845
CGTTTAGCATGGACCGGTTTTCCCGGTAATCCGTATTTGCT (site CGTTTGGCTAG) | 0

Sequence | recombinant UMI read abundance (log10)
ACAATATCATGGACCGGTTTTCCCGGTAATCCGTATTTGCT (site ACAATATCTAG) | 2.64
TAATGTCCATGGACCGGTTTTCCCGGTAATCCGTATTTGTA (site TAAGGTCCTTA) | 0.586
ACCTACACATGGACCGGTTTTCCCGGTAATCCGTATTTGGG (site ACCTATACTCC) | 0.0213
GTAGCTACATGGACCGGTTTTCCCGGTAATCCGTATTTGAC (site GTAGTTACTGT) | 1.7
CGCCGTACATGGACCGGTTTTCCCGGTAATCCGTATTTGCT (site GGCCGTACTAG) | 0.00569
CGCCGTACATGGACCGGTTTTCCCGGTAATCCGTATTTGCT (site CGCCGTACTAG) | 1.59
CGGAATCCATGGACCGGTTTTCCCGGTAATCCGTATTTGTT (site CCAAATCCTAA) | 0
AGCCGAGCATGGACCGGTTTTCCCGGTAATCCGTATTTGTT (site AGCCCAGCTAA) | 0.0229
TGGCCAGCATGGACCGGTTTTCCCGGTAATCCGTATTTGGC (site TGGCCTGCTGC) | 0.017
TAATTAGCATGGACCGGTTTTCCCGGTAATCCGTATTTGGG (site TAATCAGCTCC) | 0.0055
GTTGTGCCATGGACCGGTTTTCCCGGTAATCCGTATTTGGT (site GTTGTTCCTAC) | 0.0079
GGTCCAACATGGACCGGTTTTCCCGGTAATCCGTATTTGTA (site GGTGCAACTTA) | 0.0122
GCGAAAACATGGACCGGTTTTCCCGGTAATCCGTATTTGCA (site GCGAAAACTCG) | 1.4
GGTCCAACATGGACCGGTTTTCCCGGTAATCCGTATTTGTA (site GGCCCAACTTA) | 0.0162
AAGCCTTCATGGACCGGTTTTCCCGGTAATCCGTATTTGGT (site GAGCCTTCTAC) | 0.134
AGACAGGCATGGACCGGTTTTCCCGGTAATCCGTATTTGCT (site AGAGAGGCTAG) | 0
ACTTTACCATGGACCGGTTTTCCCGGTAATCCGTATTTGCT (site ACTTTACCTAG) | 0.431
CAACCGCCATGGACCGGTTTTCCCGGTAATCCGTATTTGTG (site CAAGCGCCTCA) | 0.0348
CTACTATCATGGACCGGTTTTCCCGGTAATCCGTATTTGAC (site CTAATATCTGT) | 0
TAATCAGCATGGACCGGTTTTCCCGGTAATCCGTATTTGTC (site TAATCAGCTGA) | 1.93
CCGTTTACATGGACCGGTTTTCCCGGTAATCCGTATTTGCG (site CCGTTTACTTG) | 0
TCATGCTCATGGACCGGTTTTCCCGGTAATCCGTATTTGCA (site TCATACTCTTG) | 0.466
CTTCTCTCATGGACCGGTTTTCCCGGTAATCCGTATTTGTA (site CTTCCCTCTTA) | 0.181
AGATTTACATGGACCGGTTTTCCCGGTAATCCGTATTTGGA (site AGATTTACTTC) | 0.959
CATGACTCATGGACCGGTTTTCCCGGTAATCCGTATTTGTC (site CATGACTCTGA) | 1.71

Sequence | recombinant UMI read abundance (log10)
CGGAATCCATGGACCGGTTTTCCCGGTAATCCGTATTTGTT (site CGAAAACCTAA) | 0
GTCGAGGCATGGACCGGTTTTCCCGGTAATCCGTATTTGTG (site GTTGAGGCTCA) | 0.0142
TGATGAGCATGGACCGGTTTTCCCGGTAATCCGTATTTGGG (site TCATGAGCTCC) | 0.0102
CCCCACACATGGACCGGTTTTCCCGGTAATCCGTATTTGTA (site CCCGACACTTA) | 0.0189
CAGTCGACATGGACCGGTTTTCCCGGTAATCCGTATTTGGC (site CAGTCGACTCC) | 0.00601
TTGGTATCATGGACCGGTTTTCCCGGTAATCCGTATTTGAC (site TTGGTATCTGT) | 2.59
CGGAATCCATGGACCGGTTTTCCCGGTAATCCGTATTTGTT (site CGGCACCCTAA) | 0.0425
GAATGGCCATGGACCGGTTTTCCCGGTAATCCGTATTTGCA (site GAAGGGCCTTG) | 0
TACATGACATGGACCGGTTTTCCCGGTAATCCGTATTTGCT (site TACATGACTAG) | 2.15
GTTACGTCATGGACCGGTTTTCCCGGTAATCCGTATTTGTT (site GGTACGTCTAA) | 0.00806
CCATTCTCATGGACCGGTTTTCCCGGTAATCCGTATTTGGG (site CCTTTCTCTCC) | 0.0196
ACACGAACATGGACCGGTTTTCCCGGTAATCCGTATTTGAC (site ACACGAACTGT) | 2.62
GAATGGCCATGGACCGGTTTTCCCGGTAATCCGTATTTGCA (site AAATGGCCTTG) | 0
TTTCTGTCATGGACCGGTTTTCCCGGTAATCCGTATTTGTA (site TTTCTGTCTTA) | 0
AACGTGTCATGGACCGGTTTTCCCGGTAATCCGTATTTGAC (site AACGTGTCTGT) | 0
GACAAAACATGGACCGGTTTTCCCGGTAATCCGTATTTGGT (site GACAAACCTAC) | 0
GGGAAAACATGGACCGGTTTTCCCGGTAATCCGTATTTGCT (site GCGAAAACTAG) | 0.0308
GCACGAACATGGACCGGTTTTCCCGGTAATCCGTATTTGTC (site GCACGAACTGA) | 2.56
CACACTGCATGGACCGGTTTTCCCGGTAATCCGTATTTGTA (site CACACTGCTTA) | 1.72
AATTATGCATGGACCGGTTTTCCCGGTAATCCGTATTTGGA (site AATTATGCTTA) | 0.00642
CCTGAACCATGGACCGGTTTTCCCGGTAATCCGTATTTGGT (site CCTGAACCTAC) | 0.00702
TCCAATTCATGGACCGGTTTTCCCGGTAATCCGTATTTGCA (site TCCAATTCTGG) | 0
CTGGGCACATGGACCGGTTTTCCCGGTAATCCGTATTTGAG (site CTGGGCACTCT) | 0.567
GGTCCAACATGGACCGGTTTTCCCGGTAATCCGTATTTGTA (site GGTCCCACTTA) | 0.00585
CCCATTTCATGGACCGGTTTTCCCGGTAATCCGTATTTGTC (site CCCATGTCTGA) | 0
